Values joined by “and” are separate entries in the source; they are usually repeats but may differ in a detail not shown here. Equal values may be shown once.
Test system: adjuvant arthritis model rats
Assay: Rat adjuvant arthritis model: left hind limb (non-sensitized limb) volume
Assay type: in vivo, rat (male LEW rats)
Conditions: for Left hind limb volume, Mean: group mean n=5; for Left hind limb volume: individual animals
Protocol: Required amounts of GSSSG and indomethacin were weighed with an electronic balance, each ground well with a mortar, added to a solvent (0.5% methyl cellulose (MC) suspension), and suspended. The administration solution of GSSSG alone was prepared to have a concentration of 21.2 mg/mL (20 mg/mL on an anhydrous basis), and the administration solution of indomethacin alone was prepared to have a concentration of 0.06 mg/mL or 0.6 mg/mL. A combined administration solution was prepared by mixing a suspension prepared with GSSSG at 42.4 mg/mL (40 mg/mL on an anhydrous basis) with 0.12 mg/mL and 1.2 mg/mL indomethacin suspensions in equal amounts. The administration solution was prepared for 2 weeks at a time and stored under refrigeration and light shielding conditions until administration.
An appropriate amount of killed Mycobacterium tuberculosis (M. Tuberculosis H37Ra; BD) was ground in a mortar, and liquid paraffin was added thereto to prepare an adjuvant to 5 mg/mL. As experimental animals, 6-week-old male LEW rats were used. General condition observation and weight measurement were carried out upon arrival, and the presence or absence of abnormalities was confirmed.
The acclimation period was set to 7 days, and the general condition was observed once a day. On the last day of the acclimation period, left hind limb volume and body weight were measured to confirm that there were no abnormalities in body weight and general condition, and the animals were then used for a test.
On the last day of the acclimation period, the rats were sensitized with 50 μL of the prepared adjuvant under isoflurane inhalation anesthesia under the skin of the right hind limb plantar. In grouping, the rats were assigned to 6 groups (n=5) to ensure equal left hind limb volume and body weight.
The administration solution of indomethacin alone, the administration solution of GSSSG alone, and the combined administration solution were forcibly orally administered at a volume of 5 mL/kg for 14 days from the day of grouping. The dose was calculated based on the most recent body weight. The volume of the left hind limb (non-sensitized limb) was measured using a rat hind limb plantar edema volume measurement device (TK-101P; Natsume Seisakusho Co., Ltd.) on the last day of the acclimation period, the day of grouping, and twice a week after the day of grouping. The measurement was performed 5 times per rat per day, and an average value of 3 times excluding the highest and lowest values was taken as the volume.

[1] = GSSSG 100 mg/kg/day oral, day 0 (before sensitization)
[2] = GSSSG 100 mg/kg/day oral, day 9 (day of grouping, start of dosing)
[3] = GSSSG 100 mg/kg/day oral, day 13
[4] = GSSSG 100 mg/kg/day oral, day 16
[5] = GSSSG 100 mg/kg/day oral, day 20
[6] = GSSSG 100 mg/kg/day oral, day 23
[7] = Indomethacin 0.3 mg/kg/day oral, day 0 (before sensitization)
[8] = Indomethacin 0.3 mg/kg/day oral, day 9 (day of grouping, start of dosing)
[9] = Indomethacin 0.3 mg/kg/day oral, day 13
[10] = Indomethacin 0.3 mg/kg/day oral, day 16
[11] = Indomethacin 0.3 mg/kg/day oral, day 20
[12] = Indomethacin 0.3 mg/kg/day oral, day 23
[13] = Indomethacin 3 mg/kg/day oral, day 0 (before sensitization)
[14] = Indomethacin 3 mg/kg/day oral, day 9 (day of grouping, start of dosing)
[15] = Indomethacin 3 mg/kg/day oral, day 13
[16] = Indomethacin 3 mg/kg/day oral, day 16
[17] = Indomethacin 3 mg/kg/day oral, day 20
[18] = Indomethacin 3 mg/kg/day oral, day 23

In the case of `N[C@@H](CCC(=O)N[C@@H](CSSSC[C@H](NC(=O)CC[C@H](N)C(=O)O)C(=O)NCC(=O)O)C(=O)NCC(=O)O)C(=O)O` [GSSSG, glutathione trisulfide], the “Left hind limb volume, Mean” value [1] is reported as 1.31 mL, the “Left hind limb volume” value [1] is reported as 1.21 mL and 1.39 mL (2×) and 1.29 mL (2×) and the “Left hind limb volume, Mean” value [2] is reported as 1.49 mL. For the same molecule, the “Left hind limb volume” value [2] was 1.29 mL and 1.52 mL and 1.58 mL (2×) and 1.51 mL, the “Left hind limb volume, Mean” value [3] was 1.99 mL and the “Left hind limb volume” value [3] was 1.45 mL and 2.35 mL and 2.08 mL and 2.06 mL and 2.00 mL. For the same molecule, the “Left hind limb volume, Mean” value [4] was 2.26 mL, the “Left hind limb volume” value [4] was 1.41 mL and 2.64 mL (2×) and 2.28 mL and 2.35 mL and the “Left hind limb volume, Mean” value [5] was 2.39 mL. The “Left hind limb volume” value [5] was 1.72 mL and 2.82 mL and 2.58 mL and 2.53 mL and 2.31 mL, the “Left hind limb volume, Mean” value [6] was 2.54 mL and the “Left hind limb volume” value [6] was 1.67 mL and 3.22 mL and 2.77 mL and 2.69 mL and 2.34 mL. For the same molecule, the anti-inflammatory effect (GSSSG alone administration group (100 mg/kg oral, 14 days)) was “no anti-inflammatory effect was observed”.

`COc1ccc2c(c1)c(CC(=O)O)c(C)n2C(=O)c1ccc(Cl)cc1` [Indomethacin, indomethacin] was tested, and the “Left hind limb volume, Mean” value [7] was 1.32 mL, the “Left hind limb volume” value [7] was 1.39 mL and 1.24 mL and 1.37 mL and 1.30 mL and 1.29 mL and the “Left hind limb volume, Mean” value [8] was 1.63 mL. For the same molecule, the “Left hind limb volume” value [8] was 1.47 mL and 1.41 mL and 1.74 mL (2×) and 1.79 mL, the “Left hind limb volume, Mean” value [9] was 1.90 mL and the “Left hind limb volume” value [9] was 1.78 mL and 1.59 mL and 2.17 mL and 1.98 mL and 1.99 mL. For the same molecule, the “Left hind limb volume, Mean” value [10] was 1.88 mL, the “Left hind limb volume” value [10] was 1.74 mL and 1.62 mL and 2.19 mL and 1.95 mL and 1.91 mL and the “Left hind limb volume, Mean” value [11] was 1.92 mL. For the same molecule, the “Left hind limb volume” value [11] was 1.71 mL and 1.60 mL and 2.09 mL and 2.06 mL and 2.12 mL, the “Left hind limb volume, Mean” value [12] was 1.94 mL and the “Left hind limb volume” value [12] was 1.69 mL and 1.65 mL and 1.98 mL and 2.20 mL and 2.18 mL. The “Left hind limb volume, Mean” value [13] was 1.33 mL, the “Left hind limb volume” value [13] was 1.17 mL and 1.40 mL and 1.37 mL and 1.32 mL and 1.38 mL and the “Left hind limb volume, Mean” value [14] was 1.52 mL. The “Left hind limb volume” value [14] was 1.36 mL and 1.49 mL (2×) and 1.71 mL and 1.55 mL, the “Left hind limb volume, Mean” value [15] was 1.63 mL and the “Left hind limb volume” value [15] was 1.39 mL and 1.68 mL (2×) and 1.69 mL (2×). The “Left hind limb volume, Mean” value [16] was 1.55 mL, the “Left hind limb volume” value [16] was 1.36 mL and 1.60 mL (2×) and 1.58 mL and 1.62 mL and the “Left hind limb volume, Mean” value [17] was 1.52 mL. The “Left hind limb volume” value [17] was 1.32 mL and 1.60 mL and 1.61 mL and 1.51 mL and 1.59 mL, the “Left hind limb volume, Mean” value [18] was 1.54 mL and the “Left hind limb volume” value [18] was 1.33 mL and 1.56 mL and 1.61 mL and 1.58 mL and 1.62 mL.
